Read-outs that look alike come from different tables or passages of the source.
Key:
Pseudomonas fluorescens = experiment: Alternate Minimum Inhibitory Concentrations Test (Table 4), Ps.fl; assay type: cell-based; conditions: Table 4 alternate test; for MIC: Pseudomonas fluorescens, read-out: MIC Ps.fl; for MIC Ps.fl (I = inactive): class symbol
Protocol: The compounds of Examples 1-8, 12-26, 28-33, 36-37, 39-42, 44-109, 111-114, and 116-120 were subjected also to the following alternate biocidal activity test procedures with the results as indicated in Table 4.
The MIC test measures the viability of Pseudomonas fluorescens inoculum in TSB when exposed for 72 hours to varying concentrations of test compound.
A 125 μl aliquot of 10,000 ppm test compound in acetone was added to 4.88 ml of TSB to provide a 250 ppm solution. From this solution, 100 μL was transferred to the first row of two microtiter plate columns. Both replicates and five additional compounds were all serially diluted 1:1 to a final concentration of 0.8 ppm in TSB.
Inoculation was accomplished by diluting a 24 hr Ps fl culture, four mls per 36 mls of phosphate buffer solution. A Dynatech autoinoculator was used to transfer 1.5 μl of this cell suspension to the microtiter plates. The plates were incubated at 30° C. for 3 days before the lowest concentration at which no growth occurs was recorded in the database.

[1] = test system: Pseudoperonospora cubensis; experiment: whole plant or invertebrate; assay type: in vivo; conditions: Pseudoperonospora cubensis, in Cucumis sativus, 168 h; read-out: % Control CDM
Piricularia oryzae = experiment: whole plant or invertebrate; assay type: in vivo; conditions: for pest or weed control at 200 ppm: read-out: % Control RB, application rate 200 ppm
Phytophthora infestans = experiment: whole plant or invertebrate; assay type: in vivo
[2] = test system: Puccinia recondita (f. sp. tritici Races PKB and PLD); experiment: whole plant or invertebrate; assay type: in vivo; conditions: for pest or weed control at 200 ppm / pest or weed control at 100 ppm: Puccinia recondita, 240 h, read-out: % Control WLR
[3] = test system: Erysiphe graminis (f. sp. tritici); experiment: whole plant or invertebrate; assay type: in vivo
[4] = test system: Pellicularia filamentosa (f. sp. sasiki); experiment: whole plant or invertebrate; assay type: in vivo; conditions: for pest or weed control at 200 ppm / pest or weed control at 100 ppm: 120 h, read-out: % Control RSB
[5] = 250 ppm to 0.8 ppm in TSB, 72 hours, 30° C.
[6] = Phytophthora infestans, in Solanum lycopersicum, 96 h, read-out: % Control TLB, application rate 200 ppm
[7] = Blumeria graminis, read-out: % Control WPM
[8] = Phytophthora infestans, in Solanum lycopersicum, 96 h, read-out: % Control TLB

`CCCCCCCCNC(=O)/C=C\SC(=O)c1cccc(Cl)c1Cl` [Compound 102, N-octyl-cis-3-[(2,3-dichlorobenzoyl)thio]acrylamide] showed an MIC (Pseudomonas fluorescens; [5]) greater than 250 µg/mL, a pest or weed control at 200 ppm [1] of 50% and a pest or weed control at 200 ppm (Piricularia oryzae; Pyricularia oryzae) of 50%. The pest or weed control at 200 ppm (Phytophthora infestans; [6]) was 0%, the pest or weed control at 200 ppm [2] was 0% and the pest or weed control at 200 ppm [3, 7] was 0%.

`CCCCCCCCNC(=O)/C=C\SC(=O)c1ccc(Br)o1` [Compound 111, N-octyl-cis-3-[(5-bromo-2-furoyl)thio]acrylamide] gave an MIC (Pseudomonas fluorescens; [5]) greater than 250 µg/mL, a pest or weed control at 200 ppm [1] of 85% and a pest or weed control at 200 ppm (Piricularia oryzae; Pyricularia oryzae) of 0%. It also gave a pest or weed control at 200 ppm (Phytophthora infestans; [8]) of 80%, a pest or weed control at 200 ppm [2] of 0% and a pest or weed control at 200 ppm [3, 7] of 0%.

`CCCCCCCCNC(=O)/C=C\SC(=O)CCCCCCC(=O)OC` [Compound 110, N-octyl-cis-3-[(7-methoxycarbonylheptanoyl)thio]acrylamide] was tested, and the pest or weed control at 200 ppm [1] was 70%, the pest or weed control at 200 ppm (Piricularia oryzae; Pyricularia oryzae) was 75% and the pest or weed control at 200 ppm (Phytophthora infestans; [8]) was 90%. The pest or weed control at 200 ppm [2] was 0% and the pest or weed control at 200 ppm [3, 7] was 0%.

Molecule `CCCCCCCCNC(=O)/C=C\SC(=O)c1ccc([N+](=O)[O-])cc1C` [Compound 99, N-octyl-cis-3-[(2-methyl-4-nitrobenzoyl)thio]acrylamide] has an MIC (Pseudomonas fluorescens; [5]) greater than 250 µg/mL, a pest or weed control at 200 ppm [1] of 50% and a pest or weed control at 200 ppm (Piricularia oryzae; Pyricularia oryzae) of 75%. The pest or weed control at 200 ppm (Phytophthora infestans; [6]) was 0%, the pest or weed control at 200 ppm [2] was 0% and the pest or weed control at 200 ppm [3, 7] was 50%.

`CCCCCCCCNC(=O)/C=C\SC(=O)c1cnccc1Cl` [Compound 108, N-octyl-cis-3-[(4-chloro-3-pyridine)carbonylthio]acrylamide] was tested, and the MIC (Pseudomonas fluorescens; [5]) was greater than 250 µg/mL, the pest or weed control at 200 ppm [1] was 90% and the pest or weed control at 200 ppm (Piricularia oryzae; Pyricularia oryzae) was 0%. The pest or weed control at 200 ppm (Phytophthora infestans; [8]) was 90%, the pest or weed control at 200 ppm [2] was 0% and the pest or weed control at 200 ppm [3, 7] was 0%.

`CCCCCCCCNC(=O)/C=C\SC(=O)CCCOc1ccccc1` [Compound 120, N-octyl-cis-3-[(4-phenoxybutanoyl)thio]acrylamide] was tested, and the “MIC Ps.fl (I = inactive)” value (Pseudomonas fluorescens) was “I”, the pest or weed control at 200 ppm [1] was 90% and the pest or weed control at 200 ppm (Piricularia oryzae; Pyricularia oryzae) was 0%. For the same molecule, the pest or weed control at 50 ppm (Phytophthora infestans; [8]) was 80%, the pest or weed control at 200 ppm [2] was 0% and the pest or weed control at 200 ppm [3, 7] was 0%.

For `CCCCCCCCNC(=O)/C=C\SC(=O)c1ccc(C)cc1` [Compound 106, N-octyl-cis-3-[(4-methylbenzoyl)thio]acrylamide], the MIC (Pseudomonas fluorescens; [5]) was greater than 250 µg/mL, the pest or weed control at 200 ppm [1] was 50% and the pest or weed control at 200 ppm (Piricularia oryzae; Pyricularia oryzae) was 0%. For the same molecule, the pest or weed control at 200 ppm (Phytophthora infestans; [6]) was 0%, the pest or weed control at 200 ppm [2] was 0% and the pest or weed control at 200 ppm [3, 7] was 0%.

In the case of `CCCCCCCCNC(=O)/C=C\SC(=O)CCCCCCCCC(=O)OC` [Compound 119, N-octyl-cis-3-[(9-methoxycarbonylnonanoyl)thio]acrylamide], the “MIC Ps.fl (I = inactive)” value (Pseudomonas fluorescens) was “I”, the pest or weed control at 200 ppm [1] was 70% and the pest or weed control at 200 ppm (Piricularia oryzae; Pyricularia oryzae) was 50%. For the same molecule, the pest or weed control at 200 ppm (Phytophthora infestans; [8]) was 80%, the pest or weed control at 200 ppm [2] was 0% and the pest or weed control at 200 ppm [3, 7] was 0%.

For `CCCCCCCCNC(=O)/C=C\SC(=O)/C=C/C=C/c1ccccc1` [Compound 109, N-octyl-cis-3-[(trans,trans-5-phenyl-2,4-pentadienoyl)thio]acrylamide], the MIC (Pseudomonas fluorescens; [5]) was greater than 250 µg/mL, the pest or weed control at 200 ppm [1] was 50% and the pest or weed control at 200 ppm (Piricularia oryzae; Pyricularia oryzae) was 0%. The pest or weed control at 200 ppm (Phytophthora infestans; [6]) was 0%, the pest or weed control at 200 ppm [2] was 0% and the pest or weed control at 200 ppm [3, 7] was 0%.

In the case of `CCCCCCCCNC(=O)/C=C\SC(=O)CCCCC(=O)OC` [Compound 118, N-octyl-cis-3-[(5-methoxycarbonylpentanoyl)thio]acrylamide], the “MIC Ps.fl (I = inactive)” value (Pseudomonas fluorescens) was “I”, the pest or weed control at 200 ppm [1] was 100% and the pest or weed control at 200 ppm (Piricularia oryzae; Pyricularia oryzae) was 75%. The pest or weed control at 200 ppm (Phytophthora infestans; [8]) was 90%, the pest or weed control at 200 ppm [2] was 0% and the pest or weed control at 200 ppm [3, 7] was 0%.

`CCCCCCCCNC(=O)/C=C\SC(=O)C1C=CCC=C1C` (stereo not drawn) [Compound 101, N-octyl-cis-3-[(2-methylcyclohexa-2,5-diene)carbonylthio]acrylamide] showed an MIC (Pseudomonas fluorescens; [5]) greater than 250 µg/mL, a pest or weed control at 200 ppm [1] of 50% and a pest or weed control at 200 ppm (Piricularia oryzae; Pyricularia oryzae) of 75%. For the same molecule, the pest or weed control at 200 ppm (Phytophthora infestans; [6]) was 0%, the pest or weed control at 200 ppm [2] was 0% and the pest or weed control at 200 ppm [3, 7] was 0%.

`CCCCCCCCNC(=O)/C=C\SC(=O)c1cc([N+](=O)[O-])ccc1[N+](=O)[O-]` [Compound 107, N-octyl-cis-3-[(2,5-dinitrobenzoyl)thio]acrylamide] was tested, and the MIC (Pseudomonas fluorescens; [5]) was greater than 250 µg/mL, the pest or weed control at 200 ppm [1] was 0% and the pest or weed control at 200 ppm (Piricularia oryzae; Pyricularia oryzae) was 0%. The pest or weed control at 200 ppm (Phytophthora infestans; [6]) was 0%, the pest or weed control at 200 ppm [2] was 0% and the pest or weed control at 200 ppm [3, 7] was 50%.

For `C=Cc1ccc(C(=O)S/C=C\C(=O)NCCCCCCCC)cc1` [Compound 64, N-octyl-cis-3-[(4-ethenylbenzoyl)thio]acrylamide], the MIC (Pseudomonas fluorescens; [5]) was greater than 250 µg/mL, the pest or weed control at 200 ppm (Piricularia oryzae; Pyricularia oryzae) was 0% and the pest or weed control at 200 ppm [4] was 0%. The pest or weed control at 200 ppm (Phytophthora infestans; [8]) was 80%, the pest or weed control at 200 ppm [2] was 0% and the pest or weed control at 200 ppm [3, 7] was 0%.

`CCCCCCCCNC(=O)/C=C\SC(=O)CC(=O)OCC` [Compound 2, N-octyl-cis-3-(ethylmalonylthio)acrylamide] was tested, and the MIC (Pseudomonas fluorescens; [5]) was greater than 250 µg/mL, the pest or weed control at 6 ppm (Piricularia oryzae; Pyricularia oryzae, read-out: % Control RB, application rate 6 ppm) was 50% and the pest or weed control at 100 ppm [4] was 0%. The pest or weed control at 100 ppm (Phytophthora infestans; [8]) was 90%, the pest or weed control at 100 ppm [2] was 0% and the pest or weed control at 100 ppm [3, 7] was 0%.

`CCCCCCCCNC(=O)C=CSC(CO)COc1ccc(OC)cc1` (stereo not drawn) [Compound 39, N-octyl-cis-3-[(1-hydroxy-3-(4-methoxyphenoxy)-2-propane)thio]acrylamide] was tested, and the “MIC Ps.fl” value (Pseudomonas fluorescens; [5]) was greater than 250 Ppm, the “% Control RB” value (Piricularia oryzae; in vivo) was 80 % Control and the “% Control RSB” value ([4]; in vivo) was 0 % Control. The “% Control TLB” value (Phytophthora infestans; application rate 100 ppm) was 0 % Control, the “% Control WLR” value ([2]; in vivo) was 0 % Control and the “% Control WPM” value ([3]; in vivo) was 0 % Control.

For `CCCCCCCCNC(=O)/C=C\SC(=O)COCC` [Compound 60, N-octyl-cis-3-(ethoxyacetylthio)acrylamide], the MIC (Pseudomonas fluorescens; [5]) was greater than 250 µg/mL, the pest or weed control at 200 ppm (Piricularia oryzae; Pyricularia oryzae) was 50% and the pest or weed control at 200 ppm [4] was 0%. It also gave a pest or weed control at 200 ppm (Phytophthora infestans; [6]) of 95%, a pest or weed control at 200 ppm [2] of 25% and a pest or weed control at 200 ppm [3, 7] of 0%.

With `CCCCCCCCNC(=O)/C=C\SC(=O)c1cnc2ccccc2c1` [Compound 72, N-octyl-cis-3-[(3-quinoline)carbonylthio]acrylamide] the MIC (Pseudomonas fluorescens; [5]) was greater than 250 µg/mL, the pest or weed control at 200 ppm (Piricularia oryzae; Pyricularia oryzae) was 0% and the pest or weed control at 200 ppm [4] was 50%. For the same molecule, the pest or weed control at 200 ppm (Phytophthora infestans; [8]) was 90%, the pest or weed control at 200 ppm [2] was 0% and the pest or weed control at 200 ppm [3, 7] was 0%.

`CCCCCCCCNC(=O)/C=C\SC(=O)c1ccoc1` [Compound 62, N-octyl-cis-3-(3-furoylthio)acrylamide] gave an MIC (Pseudomonas fluorescens; [5]) greater than 250 µg/mL, a pest or weed control at 200 ppm (Piricularia oryzae; Pyricularia oryzae) of 0% and a pest or weed control at 200 ppm [4] of 0%. For the same molecule, the pest or weed control at 200 ppm (Phytophthora infestans; [8]) was 90%, the pest or weed control at 100 ppm [2] was 0% and the pest or weed control at 12 ppm [3, 7] was 50%.

Work on `CCCCCCCCNC(=O)/C=C\SC(=O)CCCCCCC` [Compound 23, N-octyl-cis-3-(octanoylthio)acrylamide] yielded an MIC (Pseudomonas fluorescens; [5]) greater than 250 µg/mL, a pest or weed control at 100 ppm (Piricularia oryzae; Pyricularia oryzae, read-out: % Control RB, application rate 100 ppm) of 0% and a pest or weed control at 100 ppm [4] of 80%. It also gave a pest or weed control at 100 ppm (Phytophthora infestans; Phytophthora infestans, in Solanum lycopersicum, 96 h, read-out: % Control TLB, application rate 100 ppm) of 0%, a pest or weed control at 100 ppm [2] of 0% and a pest or weed control at 100 ppm [3, 7] of 0%.

`CCCCCCCCNC(=O)/C=C\SC(=O)/C=C/c1cccs1` [Compound 66, N-octyl-cis-3-[(trans-3-(2-thiophene)propenoyl)thio]acrylamide] showed an MIC (Pseudomonas fluorescens; [5]) greater than 250 µg/mL, a pest or weed control at 50 ppm (Piricularia oryzae; Pyricularia oryzae, read-out: % Control RB, application rate 50 ppm) of 50% and a pest or weed control at 200 ppm [4] of 0%. It also gave a pest or weed control at 200 ppm (Phytophthora infestans; [8]) of 90%, a pest or weed control at 200 ppm [2] of 0% and a pest or weed control at 200 ppm [3, 7] of 0%.

— US5300672A (priority 1992, dated 1994)
